Where a name gives a salt, the structure may show the parent alone.

The target of this assay is TrkA (Homo sapiens (Human), UniProt P04629). As to the kind of experiment: TrkA Omnia Assay. To be noted: averaged IC50; 20 nM enzyme, 500 μM ATP, 10 μM peptide substrate. It is filed as biochemical. Summed up: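 Continuous fluorescent kinase read-out (ex 360 nm, em 485 nm) over 70 min, with initial rates fitted to 4- or 5-parameter logistic curves for IC50. Final conditions: 500 μM ATP, 10 μM Omnia Tyr Peptide #4, 20 nM TrkA, MOPS pH 7.5 buffer with MgCl2 and Triton X-100; enzyme and compound preincubated 10 min at ambient temperature.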
TrkA, sequence (P04629 33-796): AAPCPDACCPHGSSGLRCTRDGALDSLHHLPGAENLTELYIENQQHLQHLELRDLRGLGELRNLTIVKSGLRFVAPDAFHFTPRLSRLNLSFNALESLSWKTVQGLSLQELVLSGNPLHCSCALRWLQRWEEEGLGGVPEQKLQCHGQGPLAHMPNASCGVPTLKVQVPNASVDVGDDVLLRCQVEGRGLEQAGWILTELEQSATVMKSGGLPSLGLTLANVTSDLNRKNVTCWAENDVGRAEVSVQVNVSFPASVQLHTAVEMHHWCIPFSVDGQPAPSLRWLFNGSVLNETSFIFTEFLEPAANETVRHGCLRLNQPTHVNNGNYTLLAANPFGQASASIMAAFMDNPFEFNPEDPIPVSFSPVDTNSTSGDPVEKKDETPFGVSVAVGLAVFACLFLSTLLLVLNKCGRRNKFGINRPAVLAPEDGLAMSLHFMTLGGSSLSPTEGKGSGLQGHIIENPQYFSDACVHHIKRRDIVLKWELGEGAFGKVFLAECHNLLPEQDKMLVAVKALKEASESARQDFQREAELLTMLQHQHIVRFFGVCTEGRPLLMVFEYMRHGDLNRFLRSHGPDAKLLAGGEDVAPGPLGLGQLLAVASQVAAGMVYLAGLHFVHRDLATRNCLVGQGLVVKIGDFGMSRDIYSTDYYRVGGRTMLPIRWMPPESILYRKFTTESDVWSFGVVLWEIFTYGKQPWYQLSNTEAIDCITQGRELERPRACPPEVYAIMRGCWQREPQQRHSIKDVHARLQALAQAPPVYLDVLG
In the case of `COCCN1C[C@@H](NC(=O)Nc2c(Br)c([C@H]3CCCN3)nn2-c2ccccc2)[C@H](c2ccc(F)c(F)c2)C1` [Example 588, 1-(4-bromo-1-phenyl-3-((R)-pyrrolidin-2-yl)-1H-pyrazol-5-yl)-3-((3S,4R)-4-(3,4-difluorophenyl)-1-(2-methoxyethyl)pyrrolidin-3-yl)urea dihydrochloride], the half-inhibitory concentration (IC50) is less than 100 nM.

Take `COCCN1C[C@@H](NC(=O)Nc2c(C)c(OC[C@@H](C)O)nn2-c2ccccc2)[C@H](c2ccc(F)c(F)c2)C1` [Example 365, 1-((3S,4R)-4-(3,4-difluorophenyl)-1-(2-methoxyethyl)pyrrolidin-3-yl)-3-(3-((R)-2-hydroxypropoxy)-4-methyl-1-phenyl-1H-pyrazol-5-yl)urea]: the IC50 was less than 100 nM.

For `COCCN1C[C@@H](NC(=O)Nc2c(C)c(-c3cnn(CCOC)c3)nn2-c2ccccc2)[C@H](c2ccc(F)cc2)C1` [Example 382, 1-((3S,4R)-4-(4-fluorophenyl)-1-(2-methoxyethyl)pyrrolidin-3-yl)-3-(1′-(2-methoxyethyl)-4-methyl-1-phenyl-1H,1′H-[3,4′-bipyrazol]-5-yl)urea], the 50% inhibitory concentration (IC50) is less than 100 nM.

The molecule `COCCN1C[C@@H](NC(=O)Nc2c(C)c(-c3cnn(C)c3)nn2-c2ccccc2)[C@H](c2cc(F)cc(F)c2)C1` [Example 442, 1-(1′,4-dimethyl-1-phenyl-1H, 1′H-[3,4′-bipyrazol]-5-yl)-3-((3S,4R)-4-(3,5-difluorophenyl)-1-(2-methoxyethyl)pyrrolidin-3-yl)urea] registered an IC50 of less than 100 nM.

The molecule `COCCOc1nn(-c2ccccc2)c(NC(=O)N[C@@H]2CN(CC(F)(F)F)C[C@H]2c2cccc(F)c2)c1C` [Example 202, 1-((3S,4R)-4-(3-fluorophenyl)-1-(2,2,2-trifluoroethyl)pyrrolidin-3-yl)-3-(3-(2-methoxyethoxy)-4-methyl-1-phenyl-1H-pyrazol-5-yl)urea] gave an IC50 of less than 100 nM.

For the molecule `COCCN1C[C@@H](NC(=O)Nc2c(C)c(=O)[nH]n2-c2ccccc2)[C@H](c2cc(F)c(F)c(F)c2)C1` [Example 612, 1-((3S,4R)-1-(2-methoxyethyl)-4-(3,4,5-trifluorophenyl)pyrrolidin-3-yl)-3-(4-methyl-5-oxo-2-phenyl-2,5-dihydro-1H-pyrazol-3-yl)urea], the IC50 is less than 100 nM.

For `CCOc1nn(-c2ccccc2)c(NC(=O)N[C@@H]2CN(c3cccnc3OC)C[C@H]2c2ccccc2)c1C` [Example 242, 1-(3-ethoxy-4-methyl-1-phenyl-1H-pyrazol-5-yl)-3-((3S,4R)-1-(2-methoxypyridin-3-yl)-4-phenylpyrrolidin-3-yl)urea], the IC50 is less than 100 nM.

Molecule `CCOc1nn(-c2ccccc2)c(NC(=O)N[C@@H]2CN(CCOC)C[C@H]2c2ccc(F)c(F)c2)c1F` [Example 357, 1-((3S,4R)-4-(3,4-difluorophenyl)-1-(2-methoxyethyl)pyrrolidin-3-yl)-3-(3-ethoxy-4-fluoro-1-phenyl-1H-pyrazol-5-yl)urea] showed a half-inhibitory concentration (IC50) of less than 100 nM.

For `CCOc1nn(-c2ccccc2)c(NC(=O)N[C@@H]2CN(c3cc[nH]n3)C[C@H]2c2cc(F)cc(F)c2)c1C` [Example 218, 1-((3S,4R)-4-(3,5-difluorophenyvl)-1-(1H-pyrazol-3-yl)pyrrolidin-3-yl)-3-(3-ethoxy-4-methyl-1-phenyl-1H-pyrazol-5-yl)urea], the IC50 was less than 100 nM.

Molecule `COCCN1C[C@@H](NC(=O)Nc2c(C)c([C@H]3C[C@H](O)C3)nn2-c2ccccc2)[C@H](c2ccc(F)c(F)c2)C1` [Example 451, 1-((3S,4R)-4-(3,4-difluorophenyl)-1-(2-methoxyethyl)pyrrolidin-3-yl)-3-(3-(trans-3-hydroxycyclobutyl)-4-methyl-1-phenyl-1H-pyrazol-5-yl)urea] came in with an IC50 of less than 100 nM.

`COCCN1C[C@@H](NC(=O)Nc2c(F)c(-c3cnn(C)c3)nn2-c2ccccc2)[C@H](c2cncc(F)c2)C1` [Example 432, 1-(4-fluoro-1′-methyl-1-phenyl-1H,1′H-[3,4′-bipyrazol]-5-yl)-3-((3S,4R)-4-(5-fluoropyridin-3-yl)-1-(2-methoxyethyl)pyrrolidin-3-yl)urea]: the half-inhibitory concentration (IC50) lay in the range of 100 to 1000 nM.

As to `COCCN1C[C@@H](NC(=O)Nc2cc(-c3ccccc3F)nn2C)[C@H](c2ccc(F)c(F)c2)C1` [Example 115, 1-((3S,4R)-4-(3,4-difluorophenyl)-1-(2-methoxyethyl)pyrrolidin-3-yl)-3-(3-(2-fluoro-phenyl)-1-methyl-1H-pyrazol-5-yl)urea], the IC50 is less than 100 nM.

`COCCN1C[C@@H](NC(=O)Nc2c(-c3ccccc3)nn3ccccc23)[C@H](c2ccc(F)c(F)c2)C1` [Example 635, 1-((3S,4R)-4-(3,4-difluorophenyl)-1-(2-methoxyethyl)pyrrolidin-3-yl)-3-(2-phenylpyrazolo[1,5-a]pyridin-3-yl)urea] came in with an IC50 of less than 100 nM.

In the case of `COCCN1C[C@@H](NC(=O)Nc2c3c(nn2-c2ccccc2)COC3)[C@H](c2ccccc2)C1` [Example 81, 1-((3S,4R)-1-(2-methoxy-ethyl)-4-phenylpyrrolidin-3-yl)-3-(2-phenyl-4,6-dihydro-2H-furo[3,4-c]pyrazol-3-yl)urea], the IC50 was less than 100 nM.

`COCCN1C[C@H](NC(=O)Nc2c(C)c(OCCF)nn2-c2ccccc2)[C@@H](c2cncc(F)c2)C1` [Example 340, 1-(3-(2-fluoroethoxy)-4-methyl-1-phenyl-1H-pyrazol-5-yl)-3-((3R,4S)-4-(5-fluoropyridin-3-yl)-1-(2-methoxyethyl)pyrrolidin-3-yl)urea] returned an IC50 of 100 to 1000 nM.

For the molecule `CCOc1nn(-c2ccccc2)c(NC(=O)N[C@@H]2CN(c3ccccc3)C[C@H]2c2ccc(F)c(F)c2)c1C` [Example 232, 1-((3S,4R)-4-(3,4-difluorophenyl)-1-phenylpyrrolidin-3-yl)-3-(3-ethoxy-4-methyl-1-phenyl-1H-pyrazol-5-yl)urea], the IC50 lay in the range of 100 to 1000 nM.

Regarding `COCCN1C[C@@H](NC(=O)Nc2c(C)c(OCCF)nn2-c2ccccc2)[C@H](c2cncc(F)c2)C1` [Example 339, 1-(3-(2-fluoroethoxy)-4-methyl-1-phenyl-1H-pyrazol-5-yl)-3-((3S,4R)-4-(5-fluoropyridin-3-yl)-1-(2-methoxyethyl)pyrrolidin-3-yl)urea], the half-maximal inhibitory concentration (IC50) was less than 100 nM.

The molecule `COCCN1C[C@@H](NC(=O)Nc2cc(-c3cccnc3)nn2C)[C@H](c2cc(F)cc(F)c2)C1` [Example 57, 1-((3S,4R)-4-(3,5-difluorophenyl)-1-(2-methoxyethyl)pyrrolidin-3-yl)-3-(1-methyl-3-(pyridin-3-yl)-1H-pyrazol-5-yl)urea] yielded an IC50 of less than 100 nM.

In the case of `COCCN1C[C@@H](NC(=O)Nc2c(C)c(OC[C@H]3COC(C)(C)O3)nn2-c2ccccc2)[C@H](c2cc(F)c(F)c(F)c2)C1` [Example 398, 1-(3-(((S)-2,2-dimethyl-1,3-dioxolan-4-yl)methoxy)-4-methyl-1-phenyl-1H-pyrazol-5-yl)-3-((3S,4R)-1-(2-methoxyethyl)-4-(3,4,5-trifluorophenyl)pyrrolidin-3-yl)urea], the IC50 was less than 100 nM.

In turn, `COCCN1C[C@@H](NC(=O)Nc2c(Cl)c(C3CCNCC3)nn2-c2ccccc2)[C@H](c2ccc(F)c(F)c2)C1` [Example 581, 1-(4-chloro-1-phenyl-3-(piperidin-4-yl)-1H-pyrazol-5-yl)-3-((3S,4R)-4-(3,4-difluorophenyl)-1-(2-methoxyethyl)pyrrolidin-3-yl)urea dihydrochloride] had a concentration for half-maximal inhibition (IC50) of less than 100 nM.

`COCCN1C[C@@H](NC(=O)Nc2c(C)c(-c3cn(C)nc3C)nn2-c2ccccc2)[C@H](c2ccc(F)c(F)c2)C1` [Example 508, 1-((3S,4R)-4-(3,4-difluorophenyl)-1-(2-methoxyethyl)pyrrolidin-3-yl)-3-(1′,3′,4-trimethyl-1-phenyl-1H,1′H-[3,4′-bipyrazol]-5-yl)urea] registered an IC50 of less than 100 nM.

In turn, `COCCN1C[C@@H](NC(=O)Nc2c(Cl)c([C@H]3C[C@H](O)C3)nn2-c2ccccc2)[C@H](c2ccc(F)c(F)c2)C1` [Example 453, 1-(4-chloro-3-((1r,3S)-3-hydroxycyclobutyl)-1-phenyl-1H-pyrazol-5-yl)-3-(trans-4-(3,4-difluorophenyl)-1-(2-methoxyethyl)pyrrolidin-3-yl)urea] came in with an IC50 of less than 100 nM.

In the case of `CCOc1nn(-c2ccccc2)c(NC(=O)N[C@@H]2CN(c3c(F)cccc3F)C[C@H]2c2ccccc2)c1C` [Example 240, 1-((3S,4R)-1-(2,6-difluorophenyl)-4-phenylpyrrolidin-3-yl)-3-(3-ethoxy-4-methyl-1-phenyl-1H-pyrazol-5-yl)urea], the 50% inhibitory concentration (IC50) lay in the range of 100 to 1000 nM.

In turn, `COCCN1C[C@@H](NC(=O)Nc2c3c(nn2-c2ccccc2)CNC3)[C@H](c2ccccc2)C1` [Example 158, 1-((3S,4R)-1-(2-methoxyethyl)-4-phenylpyrrolidin-3-yl)-3-(2-phenyl-2,4,5,6-tetrahydropyrrolo[3,4-c]pyrazol-3-yl)urea dihydrochloride] returned a 50% inhibitory concentration (IC50) of 1000 to 10000 nM.

Molecule “1-((3S,4R)-4-(3,4- fluorophenyl)-1-(2- methoxyethyl)pyrrolidin-3-yl)- 3-(1-(3-chlorophenyl)-1′,4- dimethyl-1H,1′H-[3,4′- bipyrazol]-5-yl)urea [Example 321]” gave a concentration for half-maximal inhibition (IC50) of less than 100 nM.

`COCCN1C[C@@H](NC(=O)Nc2c(C)c(C3CC3)nn2-c2ccccc2)[C@H](c2ccc(F)cc2)C1` [Example 534, 1-(3-cyclopropyl-4-methyl-1-phenyl-1H-pyrazol-5-yl)-3-((3S,4R)-4-(4-fluorophenyl)-1-(2-methoxyethyl)pyrrolidin-3-yl)urea] came in with an IC50 of less than 100 nM.

Molecule `O=C(Nc1c2c(nn1-c1ccccc1)CCC2)N[C@@H]1CN(CC(F)(F)F)C[C@H]1c1ccc(Cl)cc1` (relative stereo) [Example 211, 1-((trans)-4-(4-chlorophenyl)-1-(2,2,2-trifluoroethyl)pyrrolidin-3-yl)-3-(2-phenyl-2,4,5,6-tetrahydrocyclopenta[c]pyrazol-3-yl)urea] came in with a concentration for half-maximal inhibition (IC50) of less than 100 nM.

One may read the IC50 as the midpoint of a concentration-inhibition curve. Low values mean greater potency in that assay, high ones weaker potency in that assay.
